According to patent publication US9302999B2, “Substituted triazoles as herbicides” (E. I. DU PONT DE NEMOURS AND COMPANY, priority 2012, dated 2016):
Read-outs that look alike come from different tables or passages of the source.

How the values were obtained:
Format in all cases: in vivo
corn (Zea mays) = experiment: Test A pre-/postemergence: corn; details: Zea mays, 240 h
Summary of the method: (§1)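 Seeds were sown in loam/sand blend and sprayed preemergence (directed soil spray) and, simultaneously, postemergence at 2–10 cm, one- to two-leaf stage, using compounds in non-phytotoxic solvent with surfactant. After ~10 days in greenhouse, injury was rated visually versus untreated controls, 0 (no effect) to 100 (complete control).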

[1] = tested on: barnyardgrass (Echinochloa crus-galli); experiment: Test A pre-/postemergence: barnyardgrass; details: Echinochloa crus-galli, 240 h; for pest or weed control at 125 g/ha: 125 g ai/ha; for pest or weed control at 500 g/ha: 500 g ai/ha
Summary of the method: as §1

[2] = tested on: crabgrass, large (large crabgrass, Digitaria sanguinalis); experiment: Test A pre-/postemergence: crabgrass, large; details: Digitaria sanguinalis, 240 h; for pest or weed control at 125 g/ha: 125 g ai/ha; for pest or weed control at 500 g/ha: 500 g ai/ha
Summary of the method: as §1

[3] = tested on: lambsquarters (Chenopodium album); experiment: Test C pre-/postemergence: lambsquarters
Summary of the method: (§2)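 Preemergence on seeds in loam/sand, postemergence on 2–18 cm (1–4-leaf) plants in peat-based medium; compounds in non-phytotoxic solvent with surfactant. After 13–15 days in greenhouse, visual rating versus controls, 0 (no effect) to 100 (complete control).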

[4] = tested on: galium (catchweed bedstraw, Galium aparine); experiment: Test C pre-/postemergence: galium
Summary of the method: as §2

[5] = tested on: johnsongrass (Sorghum halepense); experiment: Test C pre-/postemergence: johnsongrass
Summary of the method: as §2

wild oat (Avena fatua) = experiment: Test C pre-/postemergence: wild oat
From the text: Seeds of plant species selected from blackgrass (Alopecurus myosuroides), bromegrass, downy (downy bromegrass, Bromus tectorum), foxtail, green (green foxtail, Setaria viridis), ryegrass, Italian (Italian ryegrass, Lolium multiflorum), winter wheat (Triticum aestivum), wild oat (Avena fatua), galium (catchweed bedstraw, Galium aparine), bermudagrass (Cynodon dactylon), surinam grass (Brachiaria decumbens), cocklebur (common cocklebur, Xanthium strumarium), corn (Zea mays), large crabgrass (Digitaria sanguinalis), woolly cupgrass (Eriochloa villosa), foxtail, giant (giant foxtail, Setaria faberii), goosegrass (Eleusine indica), johnsongrass (Sorghum halepense), kochia (Kochia scoparia), lambsquarters (Chenopodium album), morningglory (Ipomoea coccinea), nightshade (eastern black nightshade, Solanum ptycanthum), nutsedge, yellow (yellow nutsedge, Cyperus esculentus), pigweed (Amaranthus retroflexus), ragweed (common ragweed, Ambrosia elation), soybean (Glycine max), common (oilseed) sunflower (Helianthus annuus), Russian thistle (Salsola kali) and velvetleaf (Abutilon theophrasti) were planted into a blend of loam soil and sand and treated preemergence with test chemicals formulated in a non-phytotoxic solvent mixture which included a surfactant.
At the same time, plants selected from these crop and weed species and also barley (winter barley, Hordeum vulgare), canarygrass (Phalaris minor), chickweed (common chickweed, Stellaria media) windgrass (Apera spica-venti) and deadnettle (henbit deadnettle, Lamium amplexicaule) were planted in pots containing Redi-Earth® planting medium (Scotts Company, 14111 Scottslawn Road, Marysville, Ohio 43041) comprising spaghnum peat moss, vermiculite, wetting agent and starter nutrients and treated with postemergence applications of test chemicals formulated in the same manner. Plants ranged in height from 2 to 18 cm (1- to 4-leaf stage) for postemergence treatments.
Treated plants and controls were maintained in a greenhouse for 13 to 15 days, after which time all species were compared to controls and visually evaluated. Plant response ratings, summarized in Table C, are based on a scale of 0 to 100 where 0 is no effect and 100 is complete control. A dash (-) response means no test result.

[6] = tested on: ryegrass, Italian (Italian ryegrass, Lolium multiflorum); experiment: Test C pre-/postemergence: ryegrass, Italian
Summary of the method: as §2

[7] = tested on: nutsedge, yellow (yellow nutsedge, Cyperus esculentus); experiment: Test C pre-/postemergence: nutsedge, yellow
Summary of the method: as §2

[8] = tested on: large crabgrass (Digitaria sanguinalis); experiment: Test C pre-/postemergence: large crabgrass
Summary of the method: as §2

[9] = tested on: blackgrass (Alopecurus myosuroides); experiment: Test C pre-/postemergence: blackgrass
Summary of the method: as §2

[10] = tested on: pigweed (Amaranthus retroflexus); experiment: Test C pre-/postemergence: pigweed
Summary of the method: as §2

[11] = Postemergence, 31 g ai/ha, scale 0 to 100 (0 no effect, 100 complete control)
[12] = Postemergence, 62 g ai/ha, scale 0 to 100 (0 no effect, 100 complete control)
[13] = Postemergence, 125 g ai/ha, scale 0 to 100, 0 no effect, 100 complete control
[14] = Postemergence, 250 g ai/ha, scale 0 to 100
[15] = Preemergence, 31 g ai/ha, scale of 0 to 100, 0 is no effect, 100 is complete control
[16] = Preemergence, 62 g ai/ha, scale of 0 to 100, 0 is no effect, 100 is complete control
[17] = Preemergence, 125 g ai/ha, scale 0 to 100, 0 no effect, 100 complete control
[18] = Preemergence, 250 g ai/ha, scale 0 to 100, 0 no effect, 100 complete control

SMILES: Cc1nn(-c2ccc(F)cc2)nc1Oc1ccnc(C(F)(F)F)c1 [Compound 129, 4-[[2-(4-fluorophenyl)-5-methyl-2H-1,2,3-triazol-4-yl]oxy]-2-(trifluoromethyl)pyridine]
- plant injury at 125 g/ha (corn (Zea mays); post-emergence, Postemergence, 125 g ai/ha, 0 to 100 scale, 0 is no effect, 100 is complete control, read-out: Corn plant response rating): 30%
- plant injury at 500 g/ha (corn (Zea mays); post-emergence, Postemergence, 500 g ai/ha, visual rating on 0 to 100 scale (0 no effect, 100 complete control), approximately ten days, read-out: Corn plant response rating): 40%
- Corn plant response rating (crop injury, 0 = no effect, 100 = complete kill) at 125 g/ha (corn (Zea mays); pre-emergence, Preemergence, 125 g ai/ha, 0 to 100 scale where 0 is no effect and 100 is complete control): 50%
- Corn plant response rating (crop injury, 0 = no effect, 100 = complete kill) at 500 g/ha (corn (Zea mays); pre-emergence, Preemergence, 500 g ai/ha, 0 to 100 scale (0 no effect, 100 complete control)): 60%
- pest or weed control at 125 g/ha ([1]; post-emergence, Postemergence, 0 to 100 scale, 0 is no effect, 100 is complete control, read-out: Barnyardgrass plant response rating): 90%
- pest or weed control at 500 g/ha ([1]; post-emergence, Postemergence, visual rating on 0 to 100 scale (0 no effect, 100 complete control), approximately ten days, read-out: Barnyardgrass plant response rating): 90%
- pest or weed control at 125 g/ha ([1]; pre-emergence, Preemergence, 0 to 100 scale where 0 is no effect and 100 is complete control, read-out: Plant response rating, Barnyardgrass): 100%
- pest or weed control at 500 g/ha ([1]; pre-emergence, Preemergence, 0 to 100 scale (0 no effect, 100 complete control), read-out: Plant response rating, Barnyardgrass): 100%
- pest or weed control at 125 g/ha ([2]; post-emergence, Postemergence, 0 to 100 scale, 0 is no effect, 100 is complete control, read-out: Crabgrass, Large plant response rating): 90%
- pest or weed control at 500 g/ha ([2]; post-emergence, Postemergence, visual rating on 0 to 100 scale (0 no effect, 100 complete control), approximately ten days, read-out: Crabgrass, Large plant response rating): 90%
- pest or weed control at 125 g/ha ([2]; pre-emergence, Preemergence, 0 to 100 scale where 0 is no effect and 100 is complete control, read-out: Plant response rating, Crabgrass, Large): 100%
- pest or weed control at 500 g/ha ([2]; pre-emergence, Preemergence, 0 to 100 scale (0 no effect, 100 complete control), read-out: Plant response rating, Crabgrass, Large): 100%
- Plant response rating, Lambsquarters [3, 11]: 98
- Plant response rating, Lambsquarters [3, 12]: 98
- Plant response rating, Lambsquarters [3, 13]: 98
- Plant response rating, Lambsquarters [3, 14]: 100
- Plant response rating, Lambsquarters [3, 15]: 95
- Plant response rating, Lambsquarters [3, 16]: 95
- Plant response rating, Lambsquarters [3, 17]: 98
- Plant response rating, Lambsquarters [3, 18]: 100
- Plant response rating, Galium [4, 11]: 60
- Plant response rating, Galium [4, 12]: 85
- Plant response rating, Galium [4, 13]: 90
- Plant response rating, Galium [4, 14]: 90
- Plant response rating, Galium [4, 15]: 85
- Plant response rating, Galium [4, 16]: 100
- Plant response rating, Galium [4, 17]: 100
- Plant response rating, Galium [4, 18]: 100
- Plant response rating, Johnsongrass [5, 11]: 5
- Plant response rating, Johnsongrass [5, 12]: 15
- Plant response rating, Johnsongrass [5, 13]: 15
- Plant response rating, Johnsongrass [5, 14]: 70
- Plant response rating, Johnsongrass [5, 15]: 25
- Plant response rating, Johnsongrass [5, 16]: 75
- Plant response rating, Johnsongrass [5, 17]: 85
- Plant response rating, Johnsongrass [5, 18]: 95
- Plant response rating, Oat, Wild (wild oat (Avena fatua); [11]): 20
- Plant response rating, Oat, Wild (wild oat (Avena fatua); [12]): 35
- Plant response rating, Oat, Wild (wild oat (Avena fatua); [13]): 50
- Plant response rating, Oat, Wild (wild oat (Avena fatua); [14]): 80
- Plant response rating, Oat, Wild (wild oat (Avena fatua); [15]): 40
- Plant response rating, Oat, Wild (wild oat (Avena fatua); [16]): 85
- Plant response rating, Oat, Wild (wild oat (Avena fatua); [17]): 95
- Plant response rating, Oat, Wild (wild oat (Avena fatua); [18]): 95
- Plant response rating, Ryegrass, Italian [6, 11]: 5
- Plant response rating, Ryegrass, Italian [6, 12]: 15
- Plant response rating, Ryegrass, Italian [6, 13]: 30
- Plant response rating, Ryegrass, Italian [6, 14]: 60
- Plant response rating, Ryegrass, Italian [6, 15]: 60
- Plant response rating, Ryegrass, Italian [6, 16]: 90
- Plant response rating, Ryegrass, Italian [6, 17]: 90
- Plant response rating, Ryegrass, Italian [6, 18]: 95
- Plant response rating, Nutsedge, Yellow [7, 11]: 0
- Plant response rating, Nutsedge, Yellow [7, 12]: 0
- Plant response rating, Nutsedge, Yellow [7, 13]: 0
- Plant response rating, Nutsedge, Yellow [7, 14]: 0
- Plant response rating, Nutsedge, Yellow [7, 15]: 0
- Plant response rating, Nutsedge, Yellow [7, 16]: 0
- Plant response rating, Nutsedge, Yellow [7, 17]: 0
- Plant response rating, Nutsedge, Yellow [7, 18]: 5
- Plant response rating, Crabgrass, Large [8, 11]: 20
- Plant response rating, Crabgrass, Large [8, 12]: 45
- Plant response rating, Crabgrass, Large [8, 13]: 65
- Plant response rating, Crabgrass, Large [8, 14]: 85
- Plant response rating, Crabgrass, Large [8, 15]: 98
- Plant response rating, Crabgrass, Large [8, 16]: 100
- Plant response rating, Crabgrass, Large [8, 17]: 100
- Plant response rating, Crabgrass, Large [8, 18]: 100
- Plant response rating, Blackgrass [9, 11]: 40
- Plant response rating, Blackgrass [9, 12]: 60
- Plant response rating, Blackgrass [9, 13]: 70
- Plant response rating, Blackgrass [9, 14]: 80
- Plant response rating, Blackgrass [9, 15]: 90
- Plant response rating, Blackgrass ([9]; Preemergence, 62 g ai/ha, scale 0 to 100, 0 no effect, 100 complete control): 90
- Plant response rating, Blackgrass [9, 17]: 90
- Plant response rating, Blackgrass [9, 18]: 90
- Plant response rating, Pigweed [10, 11]: 85
- Plant response rating, Pigweed [10, 12]: 98
- Plant response rating, Pigweed [10, 13]: 98
- Plant response rating, Pigweed [10, 14]: 100
- Plant response rating, Pigweed [10, 15]: 100
- Plant response rating, Pigweed [10, 16]: 100
- Plant response rating, Pigweed [10, 17]: 100
- Plant response rating, Pigweed [10, 18]: 100
